Measurements from ChEMBL document CHEMBL4507258 (2021).
pKi: −log10 of the molar value.

Assays:
[1] = target: Homeodomain-interacting protein kinase 4 (Homo sapiens) (UniProt Q8NE63); details: Compound concentration 1000.0 nM
[2] = target: Mitogen-activated protein kinase 6 (Homo sapiens) (UniProt Q16659); details: Compound concentration 1000.0 nM
[3] = target: NT-3 growth factor receptor (Homo sapiens) (UniProt Q16288); details: Compound concentration 1000.0 nM
[4] = target: cGMP-dependent protein kinase 2 (Homo sapiens) (UniProt Q13237); details: Compound concentration 1000.0 nM
[5] = target: Calcium/calmodulin-dependent protein kinase type 1 (Homo sapiens) (UniProt Q14012); details: Compound concentration 1000.0 nM
Sequence of Calcium/calmodulin-dependent protein kinase type 1 (Homo sapiens) (Q14012 whole entry, looked up): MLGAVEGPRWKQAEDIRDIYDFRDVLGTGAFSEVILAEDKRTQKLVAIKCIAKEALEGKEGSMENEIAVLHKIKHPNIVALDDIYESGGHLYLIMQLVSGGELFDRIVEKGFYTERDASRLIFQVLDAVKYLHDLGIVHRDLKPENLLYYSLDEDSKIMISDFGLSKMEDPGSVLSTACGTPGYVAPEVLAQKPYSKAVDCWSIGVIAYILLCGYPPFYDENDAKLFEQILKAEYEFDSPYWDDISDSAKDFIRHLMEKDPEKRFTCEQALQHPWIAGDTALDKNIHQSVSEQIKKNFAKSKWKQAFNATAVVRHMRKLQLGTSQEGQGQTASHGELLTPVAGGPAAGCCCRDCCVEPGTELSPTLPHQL

[6] = target: Peripheral plasma membrane protein CASK (Homo sapiens) (UniProt O14936); details: Compound concentration 1000.0 nM
[7] = target: Cyclin-dependent kinase 11A (Homo sapiens) (UniProt Q9UQ88); details: Compound concentration 1000.0 nM
Sequence of Cyclin-dependent kinase 11A (Homo sapiens) (Q9UQ88 whole entry): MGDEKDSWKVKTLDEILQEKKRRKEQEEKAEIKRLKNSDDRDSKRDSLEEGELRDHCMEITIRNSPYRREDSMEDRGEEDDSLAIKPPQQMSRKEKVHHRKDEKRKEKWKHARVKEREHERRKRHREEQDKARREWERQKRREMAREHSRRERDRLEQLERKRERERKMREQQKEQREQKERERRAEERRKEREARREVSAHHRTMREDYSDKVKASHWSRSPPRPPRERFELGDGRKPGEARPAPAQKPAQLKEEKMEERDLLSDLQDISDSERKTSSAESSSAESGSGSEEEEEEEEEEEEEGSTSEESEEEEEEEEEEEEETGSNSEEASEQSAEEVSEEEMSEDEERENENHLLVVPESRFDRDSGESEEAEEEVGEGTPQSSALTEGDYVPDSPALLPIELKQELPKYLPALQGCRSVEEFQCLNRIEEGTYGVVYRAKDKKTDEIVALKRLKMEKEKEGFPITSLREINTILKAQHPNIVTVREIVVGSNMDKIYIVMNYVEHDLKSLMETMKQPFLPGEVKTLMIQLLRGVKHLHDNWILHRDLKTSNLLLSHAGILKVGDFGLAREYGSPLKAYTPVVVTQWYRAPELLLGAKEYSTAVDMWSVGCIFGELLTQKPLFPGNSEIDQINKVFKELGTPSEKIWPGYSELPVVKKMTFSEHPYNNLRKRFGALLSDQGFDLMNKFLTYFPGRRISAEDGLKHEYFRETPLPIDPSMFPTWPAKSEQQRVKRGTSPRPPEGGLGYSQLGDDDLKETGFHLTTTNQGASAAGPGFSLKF

[8] = target: Mitogen-activated protein kinase 13 (Homo sapiens) (UniProt O15264); details: Compound concentration 1000.0 nM
[9] = target: Leukocyte tyrosine kinase receptor (Homo sapiens) (UniProt P29376); details: Compound concentration 1000.0 nM
[10] = target: LIM domain kinase 1 (Homo sapiens) (UniProt P53667); details: Compound concentration 1000.0 nM
Sequence of LIM domain kinase 1 (Homo sapiens) (P53667 whole entry, looked up, the tested form may be a part): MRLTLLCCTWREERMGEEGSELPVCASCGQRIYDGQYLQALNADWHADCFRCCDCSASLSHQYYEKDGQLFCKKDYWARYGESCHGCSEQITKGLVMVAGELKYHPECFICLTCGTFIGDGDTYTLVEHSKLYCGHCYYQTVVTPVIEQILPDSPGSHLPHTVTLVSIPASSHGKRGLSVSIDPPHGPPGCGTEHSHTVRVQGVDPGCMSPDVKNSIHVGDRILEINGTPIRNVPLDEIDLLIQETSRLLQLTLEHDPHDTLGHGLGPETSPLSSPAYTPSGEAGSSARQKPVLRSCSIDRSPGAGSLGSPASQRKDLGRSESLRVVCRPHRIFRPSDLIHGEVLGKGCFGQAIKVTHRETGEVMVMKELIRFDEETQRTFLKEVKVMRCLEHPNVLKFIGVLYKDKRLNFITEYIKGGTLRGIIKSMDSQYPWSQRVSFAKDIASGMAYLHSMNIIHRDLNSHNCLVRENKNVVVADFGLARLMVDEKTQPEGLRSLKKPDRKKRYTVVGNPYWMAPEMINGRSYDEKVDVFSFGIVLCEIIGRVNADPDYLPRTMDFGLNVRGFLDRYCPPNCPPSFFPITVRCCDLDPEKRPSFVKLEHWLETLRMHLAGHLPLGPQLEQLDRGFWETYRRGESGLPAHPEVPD

[11] = target: Serine/threonine-protein kinase DCLK1 (Homo sapiens) (UniProt O15075); details: Compound concentration 1000.0 nM
[12] = target: Vascular endothelial growth factor receptor 3 (Homo sapiens) (UniProt P35916); details: Compound concentration 1000.0 nM
[13] = target: Membrane-associated tyrosine- and threonine-specific cdc2-inhibitory kinase (Homo sapiens) (UniProt Q99640); details: Compound concentration 1000.0 nM
[14] = target: AP2-associated protein kinase 1 (Homo sapiens) (UniProt Q2M2I8); details: Compound concentration 1000.0 nM
[15] = target: Ephrin type-A receptor 1 (Homo sapiens) (UniProt P21709); details: Compound concentration 1000.0 nM
[16] = target: Phosphatidylinositol 5-phosphate 4-kinase type-2 gamma (Homo sapiens) (UniProt Q8TBX8); details: Compound concentration 1000.0 nM
[17] = target: Protein kinase C iota type (Homo sapiens) (UniProt P41743); details: Compound concentration 1000.0 nM
[18] = target: Beta-2 adrenergic receptor (Homo sapiens) (UniProt P07550); details: Compound concentration 10.0 uM
[19] = test system: Tyrosine-protein kinase ABL1 (Homo sapiens), P00519 [Q252H]; details: Compound concentration 1000.0 nM
[20] = target: Atypical kinase COQ8B, mitochondrial (Homo sapiens) (UniProt Q96D53); details: Compound concentration 1000.0 nM
[21] = target: Dual serine/threonine and tyrosine protein kinase (Homo sapiens) (UniProt Q6XUX3); details: Compound concentration 1000.0 nM
[22] = target: Cyclin-dependent kinase-like 5 (Homo sapiens) (UniProt O76039); details: Compound concentration 1000.0 nM
[23] = target: Dual specificity tyrosine-phosphorylation-regulated kinase 1B (Homo sapiens) (UniProt Q9Y463); details: Compound concentration 1000.0 nM
Sequence of Dual specificity tyrosine-phosphorylation-regulated kinase 1B (Homo sapiens) (Q9Y463 whole entry, looked up): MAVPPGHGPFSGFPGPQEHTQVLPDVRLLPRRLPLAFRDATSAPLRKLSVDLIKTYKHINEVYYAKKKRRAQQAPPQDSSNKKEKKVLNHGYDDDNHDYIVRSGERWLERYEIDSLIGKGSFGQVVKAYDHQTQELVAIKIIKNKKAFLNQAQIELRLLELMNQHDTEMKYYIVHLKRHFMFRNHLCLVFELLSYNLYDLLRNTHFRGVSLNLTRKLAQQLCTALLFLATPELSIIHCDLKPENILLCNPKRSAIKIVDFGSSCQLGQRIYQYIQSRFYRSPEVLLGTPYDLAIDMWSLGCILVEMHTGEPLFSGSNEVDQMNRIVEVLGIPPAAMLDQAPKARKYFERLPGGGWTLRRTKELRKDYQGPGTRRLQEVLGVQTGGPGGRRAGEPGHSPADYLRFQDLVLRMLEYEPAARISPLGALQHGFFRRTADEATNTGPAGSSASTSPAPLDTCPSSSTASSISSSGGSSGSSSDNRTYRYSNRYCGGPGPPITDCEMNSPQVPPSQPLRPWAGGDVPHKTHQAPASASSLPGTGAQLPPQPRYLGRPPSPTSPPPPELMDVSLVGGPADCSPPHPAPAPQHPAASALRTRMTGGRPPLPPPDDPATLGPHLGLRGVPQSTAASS

[24] = test system: Receptor-type tyrosine-protein kinase FLT3 (Homo sapiens), P36888 [D835H]; details: Compound concentration 1000.0 nM
[25] = target: Cyclin-dependent kinase 17 (Homo sapiens) (UniProt Q00537); details: Compound concentration 1000.0 nM
Sequence of Cyclin-dependent kinase 17 (Homo sapiens) (Q00537 whole entry, looked up): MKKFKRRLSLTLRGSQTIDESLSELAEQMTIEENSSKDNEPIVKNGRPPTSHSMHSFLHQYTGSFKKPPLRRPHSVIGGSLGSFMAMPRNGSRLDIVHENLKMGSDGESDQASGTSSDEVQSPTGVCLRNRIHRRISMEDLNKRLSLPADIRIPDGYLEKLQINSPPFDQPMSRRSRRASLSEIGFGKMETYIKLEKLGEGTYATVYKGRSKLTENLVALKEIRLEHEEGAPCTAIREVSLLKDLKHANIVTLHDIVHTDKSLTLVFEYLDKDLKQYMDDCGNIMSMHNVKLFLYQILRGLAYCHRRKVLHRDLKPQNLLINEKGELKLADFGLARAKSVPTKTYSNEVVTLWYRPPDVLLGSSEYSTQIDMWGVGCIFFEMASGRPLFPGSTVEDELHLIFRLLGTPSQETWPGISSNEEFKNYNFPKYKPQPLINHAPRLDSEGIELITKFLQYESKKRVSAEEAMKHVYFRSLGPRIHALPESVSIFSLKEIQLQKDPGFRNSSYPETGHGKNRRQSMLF

[26] = target: Ribosomal protein S6 kinase alpha-1 (Homo sapiens) (UniProt Q15418); details: Compound concentration 1000.0 nM
[27] = target: Cyclin-dependent kinase 13 (Homo sapiens) (UniProt Q14004); details: Compound concentration 1000.0 nM
[28] = target: 5'-AMP-activated protein kinase catalytic subunit alpha-2 (Homo sapiens) (UniProt P54646); details: Compound concentration 1000.0 nM
Sequence of 5'-AMP-activated protein kinase catalytic subunit alpha-2 (Homo sapiens) (P54646 whole entry, looked up): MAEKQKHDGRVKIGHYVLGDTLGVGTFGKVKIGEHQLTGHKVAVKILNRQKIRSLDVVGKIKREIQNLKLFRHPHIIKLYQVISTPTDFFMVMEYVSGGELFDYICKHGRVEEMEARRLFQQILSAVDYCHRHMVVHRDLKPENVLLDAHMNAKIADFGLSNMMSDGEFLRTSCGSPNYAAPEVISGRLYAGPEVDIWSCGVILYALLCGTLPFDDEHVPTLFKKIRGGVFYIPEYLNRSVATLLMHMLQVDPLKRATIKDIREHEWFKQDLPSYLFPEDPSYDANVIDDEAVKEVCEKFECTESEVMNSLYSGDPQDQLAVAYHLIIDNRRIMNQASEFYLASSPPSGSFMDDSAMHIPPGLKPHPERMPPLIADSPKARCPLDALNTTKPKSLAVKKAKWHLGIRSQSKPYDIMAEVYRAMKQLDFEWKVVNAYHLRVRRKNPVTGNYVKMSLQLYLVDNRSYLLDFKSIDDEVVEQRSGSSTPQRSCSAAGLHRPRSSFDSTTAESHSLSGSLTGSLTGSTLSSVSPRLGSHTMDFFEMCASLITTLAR

[29] = target: Cyclin-dependent kinase-like 1 (Homo sapiens) (UniProt Q00532); details: Compound concentration 1000.0 nM
[30] = target: Dual specificity tyrosine-phosphorylation-regulated kinase 2 (Homo sapiens) (UniProt Q92630); details: Compound concentration 1000.0 nM
[31] = target: Ribosomal protein S6 kinase alpha-4 (Homo sapiens) (UniProt O75676); details: Compound concentration 1000.0 nM
[32] = target: Phosphatidylinositol 5-phosphate 4-kinase type-2 beta (Homo sapiens) (UniProt P78356); details: Compound concentration 1000.0 nM
[33] = target: 3-phosphoinositide-dependent protein kinase 1 (Homo sapiens) (UniProt O15530); details: Compound concentration 1000.0 nM
Sequence of 3-phosphoinositide-dependent protein kinase 1 (Homo sapiens) (O15530 whole entry): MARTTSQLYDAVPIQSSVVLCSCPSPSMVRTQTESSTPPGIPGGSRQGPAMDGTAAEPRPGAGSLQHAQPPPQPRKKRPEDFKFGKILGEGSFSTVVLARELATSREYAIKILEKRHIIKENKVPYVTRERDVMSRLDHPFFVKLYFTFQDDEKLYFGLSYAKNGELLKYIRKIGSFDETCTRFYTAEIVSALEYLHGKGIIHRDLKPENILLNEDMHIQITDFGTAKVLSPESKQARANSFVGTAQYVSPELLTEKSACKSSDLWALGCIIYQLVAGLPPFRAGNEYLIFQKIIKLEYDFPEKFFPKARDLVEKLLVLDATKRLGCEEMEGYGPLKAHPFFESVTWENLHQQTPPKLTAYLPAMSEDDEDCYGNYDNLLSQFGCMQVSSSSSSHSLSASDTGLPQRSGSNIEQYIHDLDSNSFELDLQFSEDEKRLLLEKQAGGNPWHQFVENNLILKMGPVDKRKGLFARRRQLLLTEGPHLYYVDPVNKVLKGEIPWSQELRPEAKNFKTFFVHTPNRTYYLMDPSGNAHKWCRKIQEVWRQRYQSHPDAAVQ

[34] = target: Serine/threonine-protein kinase PknB (Mycobacterium tuberculosis) (UniProt P9WI81); details: Compound concentration 1000.0 nM
[35] = target: Sigma non-opioid intracellular receptor 1 (Homo sapiens, UniProt Q99720); assay: sigma-Receptor (non-selective) CEREP ligand profiling; details: Compound concentration 10.0 uM
Sequence of Sigma non-opioid intracellular receptor 1 (Q99720 whole entry): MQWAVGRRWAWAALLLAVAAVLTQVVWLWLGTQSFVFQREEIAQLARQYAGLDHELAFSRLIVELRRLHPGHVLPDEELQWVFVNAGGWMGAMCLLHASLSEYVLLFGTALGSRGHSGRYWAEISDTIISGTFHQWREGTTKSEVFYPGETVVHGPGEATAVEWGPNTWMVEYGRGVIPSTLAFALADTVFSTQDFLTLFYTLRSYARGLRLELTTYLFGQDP

[36] = target: Neurotensin receptor (Homo sapiens) (UniProt O95665+P30989); assay: Neurotensin receptor (h) CEREP ligand profiling; format: protein assay; details: Compound concentration 10.0 uM
[37] = target: 5-hydroxytryptamine receptor 7 (Homo sapiens) (UniProt P34969); assay: 5-Hydroxytryptamine7 (h) CEREP ligand profiling; details: Compound concentration 10.0 uM
Histamine H1 receptor = Histamine H1 receptor (Homo sapiens, UniProt P35367); assay: GPCRScan assay: inhibition of H1; parameters: radioligand conc. used [nm] 0.6 – 2.0, parental cells stable HEK
[38] = target: Sodium-dependent noradrenaline transporter (Homo sapiens) (UniProt P23975); assay: Norepinephrine uptake CEREP ligand profiling; details: Compound concentration 10.0 uM
[39] = target: Substance-K receptor (Homo sapiens) (UniProt P21452); assay: Neurokinin A receptor (h) CEREP ligand profiling; details: Compound concentration 10.0 uM
[40] = target: Delta-type opioid receptor (Homo sapiens) (UniProt P41143); assay: delta-Opioid receptor (h) CEREP ligand profiling; details: Compound concentration 10.0 uM
[41] = target: Vasoactive intestinal peptide receptor (Homo sapiens) (UniProt P41587+P32241+P41586); assay: Vasoactive intestinal peptide receptor CEREP ligand profiling; format: protein assay; details: Compound concentration 10.0 uM

Sequence of Mitogen-activated protein kinase 6 (Homo sapiens) (Q16659 whole entry): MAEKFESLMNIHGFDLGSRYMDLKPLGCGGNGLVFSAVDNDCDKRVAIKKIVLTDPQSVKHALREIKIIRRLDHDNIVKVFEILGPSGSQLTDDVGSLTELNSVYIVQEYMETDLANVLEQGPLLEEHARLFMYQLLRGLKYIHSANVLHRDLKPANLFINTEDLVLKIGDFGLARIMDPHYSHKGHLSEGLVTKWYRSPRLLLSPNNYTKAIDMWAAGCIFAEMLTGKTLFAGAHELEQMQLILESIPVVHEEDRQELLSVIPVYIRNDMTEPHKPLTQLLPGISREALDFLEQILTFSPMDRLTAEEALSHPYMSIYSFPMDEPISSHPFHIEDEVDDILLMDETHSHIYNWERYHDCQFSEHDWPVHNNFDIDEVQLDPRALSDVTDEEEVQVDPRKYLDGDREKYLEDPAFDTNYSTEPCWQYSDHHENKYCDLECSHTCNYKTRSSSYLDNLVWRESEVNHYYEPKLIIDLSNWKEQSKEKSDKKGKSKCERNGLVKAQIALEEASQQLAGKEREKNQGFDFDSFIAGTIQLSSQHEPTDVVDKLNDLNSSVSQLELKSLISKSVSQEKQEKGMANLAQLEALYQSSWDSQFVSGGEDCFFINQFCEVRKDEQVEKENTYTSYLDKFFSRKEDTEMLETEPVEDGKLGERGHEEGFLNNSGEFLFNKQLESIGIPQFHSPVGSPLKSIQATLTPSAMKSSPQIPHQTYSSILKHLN

SMILES: CCCCN(CCCC)C(=O)CN1C[C@@H](c2cc(OC)c3c(c2)OCO3)[C@H](C(=O)O)[C@H]1CC(C)(C)CCC [A-545]
- residual activity [1]: 100%
- residual activity [2]: 96.5%
- residual activity [3]: 87.6%
- residual activity [4]: 100%
- residual activity [5]: 100%
- residual activity [6]: 90.5%
- residual activity [7]: 98.3%
- residual activity [8]: 100%
- residual activity [9]: 94.1%
- residual activity [10]: 99%
- residual activity [11]: 81.5%
- residual activity [12]: 100%
- residual activity [13]: 100%
- residual activity [14]: 100%
- residual activity [15]: 85.5%
- residual activity [16]: 80.7%
- residual activity [17]: 100%
- inhibition [18]: -6.31%
- residual activity [19]: 100%
- residual activity [20]: 80.2%
- residual activity [21]: 99.7%
- residual activity [22]: 100%
- residual activity [23]: 95%
- residual activity [24]: 100%
- residual activity [25]: 93.3%
- residual activity [26]: 91.3%
- residual activity [27]: 100%
- residual activity [28]: 92.6%
- residual activity [29]: 74.9%
- residual activity [30]: 82.9%
- residual activity [31]: 97.2%
- residual activity [32]: 59.8%
- residual activity [33]: 77.3%
- residual activity [34]: 92.8%

SMILES: CCCCN(CCCC)C(=O)CN1C[C@H](c2cc(OC)c3c(c2)OCO3)[C@@H](C(=O)O)[C@@H]1CC(C)(C)CCC [ABT-546]
- residual activity [1]: 100%
- inhibition [35]: < 10%
- residual activity [2]: 100%
- inhibition [36]: < 10%
- residual activity [3]: 50.5%
- inhibition [37]: < 10%
- residual activity [4]: 100%
- residual activity [5]: 100%
- residual activity [6]: 70%
- residual activity [7]: 100%
- pKi (Histamine H1 receptor): 5.00
- residual activity [8]: 100%
- inhibition [38]: < 10%
- residual activity [9]: 100%
- inhibition [39]: < 10%
- residual activity [10]: 100%
- residual activity [11]: 80.2%
- residual activity [12]: 100%
- residual activity [13]: 100%
- residual activity [14]: 100%
- residual activity [15]: 92.6%
- residual activity [16]: 100%
- inhibition [40]: 62%
- residual activity [17]: 100%
- residual activity [19]: 100%
- residual activity [20]: 0%
- residual activity [21]: 68.6%
- residual activity [22]: 71.4%
- residual activity [23]: 100%
- residual activity [24]: 100%
- residual activity [25]: 99.3%
- residual activity [26]: 97.7%
- residual activity [27]: 52.5%
- residual activity [28]: 100%
- residual activity [29]: 100%
- residual activity [30]: 71.4%
- inhibition [41]: < 10%
- residual activity [31]: 75%
- residual activity [32]: 100%
- residual activity [33]: 100%
- residual activity [34]: 85%
